Laboratory results taken from PubChem BioAssay (NCI).
Where “and” joins values, the source holds several entries; their conditions need not be identical. Equal values may be shown once.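 Assay format: 96-well plates, 48-hour exposure. GI50 is the concentration that inhibits growth by half. TGI is the concentration that stops growth completely.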

Assays:
Experiment in all cases: NCI-60 cell line screen, 48 h
[1] = tested on: PC-3 prostate
[2] = tested on: COLO 205 colon
[3] = tested on: MDA-N
[4] = tested on: NCI/ADR-RES ovarian
[5] = tested on: MOLT-4 leukemia
[6] = tested on: M14 melanoma
[7] = tested on: MDA-MB-231 breast
[8] = tested on: NCI-H23 lung
[9] = tested on: HOP-62 NSCLC
[10] = tested on: NCI-H522 lung
[11] = tested on: UO-31 renal
[12] = tested on: 786-0 renal
[13] = tested on: CCRF-CEM leukemia
[14] = tested on: OVCAR-3 ovarian
[15] = tested on: MDA-MB-435
[16] = tested on: A549 NSCLC
[17] = tested on: OVCAR-8 ovarian
[18] = tested on: A498 renal
[19] = tested on: HCT-15 colon
[20] = tested on: SR leukemia
[21] = tested on: BT-549 breast
[22] = tested on: ACHN renal
[23] = tested on: DU-145 prostate
[24] = tested on: HT29 colon
[25] = tested on: UACC-257 melanoma
[26] = tested on: HCC-2998 colon
[27] = tested on: NCI-H460 lung
[28] = tested on: SK-MEL-28 melanoma
[29] = tested on: IGROV1 ovarian
[30] = tested on: SK-MEL-2 melanoma
[31] = tested on: MALME-3M melanoma
[32] = tested on: SK-MEL-5 melanoma
[33] = tested on: CAKI-1 renal
[34] = tested on: OVCAR-4 ovarian
[35] = tested on: TK-10 renal
[36] = tested on: SF-295 CNS
[37] = tested on: LOX IMVI melanoma
[38] = tested on: NCI-H226 lung
[39] = tested on: SNB-19 CNS
[40] = tested on: HS 578T breast
[41] = tested on: K-562 leukemia
[42] = tested on: EKVX NSCLC
[43] = tested on: HCT-116 colon
[44] = tested on: SNB-75 CNS
[45] = tested on: SF-268 CNS
[46] = tested on: T-47D breast
[47] = tested on: MCF7 breast
[48] = tested on: OVCAR-5 ovarian
[49] = tested on: SN12C renal
[50] = tested on: RPMI-8226 leukemia
[51] = tested on: SW-620 colon
[52] = tested on: U251 CNS
[53] = tested on: SK-OV-3 ovarian
[54] = tested on: UACC-62 melanoma
[55] = tested on: RXF 393 renal
[56] = tested on: KM12 colon
[57] = tested on: HOP-92 NSCLC
[58] = tested on: HL-60(TB) leukemia

For `COc1cc(C)c(S(=O)(=O)N(CCCN)OCCCN)c(C)c1C`, the TGI [1] was 77.3 µM, the TGI [2] was 41.2 µM and the TGI [3] was > 100 µM. The TGI [4] was > 100 µM, the TGI [5] was 31.4 µM and the TGI [6] was 65.2 µM. For the same compound, the TGI [7] was 80.8 µM, the TGI [8] was > 100 µM and the TGI [9] was > 100 µM. The TGI [10] was 51.7 µM, the TGI [11] was > 100 µM and the TGI [12] was > 100 µM. For the same compound, the TGI [13] was > 100 µM, the TGI [14] was > 100 µM and the TGI [15] was > 100 µM. The TGI [16] was > 100 µM, the TGI [17] was > 100 µM and the TGI [18] was > 100 µM. The TGI [19] was > 100 µM, the TGI [20] was 38.6 µM and the TGI [21] was 66.5 µM. The TGI [22] was > 100 µM, the TGI [23] was > 100 µM and the TGI [24] was > 100 µM. For the same compound, the TGI [25] was 62.3 µM, the TGI [26] was 57.1 µM and the TGI [27] was > 100 µM. The TGI [28] was > 100 µM, the TGI [29] was > 100 µM and the TGI [30] was 51.5 µM. The TGI [31] was 42.8 µM, the TGI [32] was 53 µM and the TGI [33] was > 100 µM. The TGI [34] was > 100 µM, the TGI [35] was > 100 µM and the TGI [36] was > 100 µM. For the same compound, the TGI [37] was 84.6 µM, the TGI [38] was > 100 µM and the TGI [39] was > 100 µM. The TGI [40] was 65.2 µM, the TGI [41] was 31.7 µM and the TGI [42] was > 100 µM. For the same compound, the TGI [43] was > 100 µM, the TGI [44] was > 100 µM and the TGI [45] was > 100 µM. The TGI [46] was > 100 µM, the TGI [47] was 53.1 µM and the TGI [48] was > 100 µM. For the same compound, the TGI [49] was > 100 µM, the TGI [50] was 49 µM and the TGI [51] was > 100 µM. The TGI [52] was > 100 µM, the TGI [53] was > 100 µM and the TGI [54] was > 100 µM. The TGI [55] was 90 µM and the TGI [56] was > 100 µM.

For `CN(C)CC1CCCCCCCCCCC1=O` (centres undefined), the GI50 [1] was > 100 µM, the TGI [1] was > 100 µM and the GI50 [2] was > 100 µM. For the same compound, the TGI [2] was > 100 µM, the GI50 [3] was > 100 µM and the TGI [3] was > 100 µM. The GI50 [4] was > 100 µM, the TGI [4] was > 100 µM and the GI50 [5] was > 100 µM. The TGI [5] was > 100 µM, the GI50 [6] was > 100 µM and the TGI [6] was > 100 µM. For the same compound, the TGI [7] was > 10 µM, the GI50 [8] was > 100 µM and the TGI [8] was > 100 µM. For the same compound, the GI50 [9] was > 100 µM, the TGI [9] was > 100 µM and the GI50 [10] was > 100 µM. For the same compound, the TGI [10] was > 100 µM, the GI50 [11] was > 100 µM and the TGI [11] was > 100 µM. For the same compound, the GI50 [12] was > 100 µM, the TGI [12] was > 100 µM and the GI50 [13] was > 10 µM and 99.4 µM. The TGI [13] was > 100 µM, the GI50 [14] was > 100 µM and the TGI [14] was > 100 µM. The GI50 [15] was > 100 µM, the TGI [15] was > 100 µM and the GI50 [16] was > 100 µM. The TGI [16] was > 100 µM, the TGI [17] was > 10 µM and the GI50 [19] was > 100 µM. For the same compound, the TGI [19] was > 100 µM, the GI50 [20] was > 100 µM and the TGI [20] was > 100 µM. The GI50 [21] was > 100 µM, the TGI [21] was > 100 µM and the GI50 [22] was > 100 µM. For the same compound, the TGI [22] was > 100 µM, the GI50 [23] was > 100 µM and the TGI [23] was > 100 µM. For the same compound, the GI50 [24] was > 10 µM and 98.4 µM, the TGI [24] was > 100 µM and the TGI [25] was > 10 µM. The TGI [26] was > 10 µM, the GI50 [27] was > 100 µM and the TGI [27] was > 100 µM. For the same compound, the TGI [28] was > 100 µM, the TGI [29] was > 100 µM and the GI50 [30] was > 100 µM. For the same compound, the TGI [30] was > 100 µM, the GI50 [31] was > 100 µM and the TGI [31] was > 100 µM. For the same compound, the TGI [32] was > 100 µM, the GI50 [33] was > 100 µM and the TGI [33] was > 100 µM. The GI50 [34] was > 100 µM, the TGI [34] was > 100 µM and the GI50 [35] was > 100 µM. For the same compound, the TGI [35] was > 100 µM, the TGI [36] was > 10 µM and the GI50 [38] was > 100 µM. The TGI [38] was > 100 µM, the GI50 [39] was > 100 µM and the TGI [39] was > 100 µM. The TGI [40] was > 100 µM, the GI50 [41] was > 100 µM and the TGI [41] was > 100 µM. For the same compound, the GI50 [57] was > 100 µM, the TGI [57] was > 100 µM and the GI50 [42] was > 100 µM. For the same compound, the TGI [42] was > 100 µM, the GI50 [43] was > 100 µM and the TGI [43] was > 100 µM. For the same compound, the TGI [44] was > 100 µM, the GI50 [45] was > 100 µM and the TGI [45] was > 100 µM. The GI50 [46] was > 100 µM, the TGI [46] was > 100 µM and the GI50 [47] was > 100 µM. The TGI [47] was > 100 µM, the GI50 [48] was > 100 µM and the TGI [48] was > 100 µM. For the same compound, the GI50 [58] was > 100 µM, the TGI [58] was > 100 µM and the GI50 [49] was > 100 µM. The TGI [49] was > 100 µM, the TGI [50] was > 100 µM and the GI50 [51] was > 100 µM. For the same compound, the TGI [51] was > 100 µM, the GI50 [52] was > 100 µM and the TGI [52] was > 100 µM. The TGI [53] was > 100 µM, the TGI [54] was > 100 µM and the TGI [55] was > 10 µM. The GI50 [56] was > 10 µM and 78.3 µM and the TGI [56] was > 100 µM.
